In US11702418B2, “SOS1 inhibitors” (priority 2019, dated 2023) one finds IC50 and Ki data, which are given here for 33 molecules.

The term IC50 denotes the midpoint of a concentration-inhibition curve. Broadly, the Ki is a dissociation constant, usually derived from enzyme kinetics or from competition with a known ligand.

Where a name gives a salt, the structure may show the parent alone. Read-outs that look alike come from different tables or passages of the source.

In one experiment the test system is pERK in MKN1 cells. The experiment in a line: cells. Particulars: Homo sapiens. The experiment is classed as cell-based.
Experiment [1] relates to pERK in NCI-H1435 cells (NF-1 mutant). Put plainly: pERK inhibition in NF-1 mutant NCI-H1435 cells (Example F). The note with it: NCI-H1435, 1 h, read-out: IC50, pERK inhibition. The experiment is classed as cell-based.
Procedure: The formaldehyde was discarded from the plates and 150 μL of ice-cold methanol was added to permeabilize the cells for 10 minutes at −20° C. The methanol was discarded from each of the plates and any liquid remaining in the plate by tapping the plate against paper towels. […] The plates were incubated overnight at 4° C. on a shaker.
(§1) On Assay day 2, the primary antibody solution was removed. […] The secondary antibody solution as removed and each plate was washed with PBST 3× times. Any liquid remaining was discarded and the plate was imaged using the Licor Odyssey machine according to the manufacturer's instruction, using a set focus length at 3 mm and both 800 nm and 700 nm filters. The GAPDH normalized scan values for each well were divided by the average of vehicle wells to get the % of pERK inhibition. The IC50 values were then calculated with the Graph pad Prism software.
Experiment [2] concerns the target recombinant human SOS1 polypeptide (amino acids 560-1049) (Homo sapiens (Human), UniProt Q07889). Put plainly: biochemical. It is filed as binding. Particulars: read-out: Ki, Inhibition of Labeled Tracer Binding to SOS1.
[3] abbreviates: MKN-1, pERK inhibition, In-Cell Western, MKN1 or H358 cells (Table 24 does not say which), 0.5-1 hour incubation, read-out: IC50.
Setting [4] is: HTRF displacement, Cy5 labelled tracer, Morrison equation for competitive binding.

Chain of recombinant human SOS1 polypeptide (amino acids 560-1049) (Q07889 560-1049): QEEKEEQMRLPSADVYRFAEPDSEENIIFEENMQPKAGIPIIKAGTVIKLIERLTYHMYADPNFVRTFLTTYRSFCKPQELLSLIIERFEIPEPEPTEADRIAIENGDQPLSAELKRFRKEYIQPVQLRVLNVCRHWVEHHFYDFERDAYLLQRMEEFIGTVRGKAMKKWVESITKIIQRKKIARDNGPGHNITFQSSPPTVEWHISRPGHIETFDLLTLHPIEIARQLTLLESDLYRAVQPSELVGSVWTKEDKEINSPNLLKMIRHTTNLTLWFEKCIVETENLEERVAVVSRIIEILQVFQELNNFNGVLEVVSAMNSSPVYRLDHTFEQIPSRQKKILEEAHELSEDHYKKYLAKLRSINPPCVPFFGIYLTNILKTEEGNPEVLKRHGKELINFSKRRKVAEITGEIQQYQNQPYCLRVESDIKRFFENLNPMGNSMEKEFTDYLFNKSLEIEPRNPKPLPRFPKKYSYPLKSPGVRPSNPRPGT
Procedure for pERK in MKN1 cells: The cells were incubated for approximately 0.5-1 hour with the compounds solubilized in DMSO at 37° C. Cells were immediately fixed by adding 50 μL of 4% formaldehyde to all wells in a fume hood and the plates were incubated for 20 minutes at room temperature. The formaldehyde was discarded from the plates and 150 μL of ice-cold methanol was added to permeabilize the cells for 10 minutes at −20° C. The methanol was discarded from each of the plates and any liquid remaining in the plate by tapping the plate against paper towels. […] The plates were incubated overnight at 4° C. on a shaker.
as §1

For the molecule `Cc1nc(C)n2c1CN(c1ccc3c(C)nnc(N[C@H](C)c4cccc(C(F)(F)F)c4C)c3c1)CC2` [Example 10-11, (R)-7-(1,3-dimethyl-5,6-dihydroimidazo[1,5-a]pyrazin-7(8H)-yl)-4-methyl-N-(1-(2-methyl-3-(trifluoromethyl)phenyl)ethyl)phthalazin-1-amine], the values for the 50% inhibitory concentration (IC50) (in the experiment on pERK in MKN1 cells (setting [3]); in experiment [1]) were 22 nM and 63 nM, respectively. The inhibition constant Ki in experiment [2] (setting [4]) came to 0.01 nM.

Regarding `Cc1c([C@@H](C)Nc2nnc(C)c3cnc(N4CCOCC4)cc23)cccc1C(F)(F)F` [Example 6-12, (R)-4-methyl-N-(1-(2-methyl-3-(trifluoromethyl)phenyl)ethyl)-7-morpholinopyrido[3,4-d]pyridazin-1-amine], the IC50 in experiment [1] is 63 nM.

For the molecule `Cc1c([C@@H](C)Nc2nnc(C)c3cnc(N4CC5(COC5)C4)cc23)cccc1C(F)(F)F` [Example 12-3], in the experiment on pERK in MKN1 cells (setting [3]), the IC50 turned out to be 30 nM. Besides, the Ki in experiment [2] (setting [4]) is 0.74 nM. For `Cc1c(C#N)cccc1[C@@H](C)Nc1nnc(C)c2cnc(N3C[C@H]4CC[C@@H]3CN4CC(F)(F)F)cc12` [Example 12-76], in that order: 56 nM and 1.06 nM. Molecule `Cc1c([C@@H](C)Nc2nnc(C)c3ccc(N4CCC5(CCN(C)C5)CC4)cc23)cccc1C(F)(F)F` [Example 10-37, (R)-4-methyl-N-(1-(2-methyl-3-(trifluoromethyl)phenyl)ethyl)-7-(2-methyl-2,8-diazaspiro[4.5]decan-8-yl)phthalazin-1-amine hydrochloride salt] displayed an IC50 in the experiment with pERK in MKN1 cells (MKN-1) of 55 nM. Moreover, in experiment [2], the Ki stood at 0.24 nM. In the experiment on pERK in MKN1 cells (MKN-1), `Cc1c([C@@H](C)Nc2nnc(C)c3ccc(N4CC(N(C)C)C4)cc23)cccc1C(F)(F)F` [Example 10-46, (R)-7-(3-(dimethylamino)azetidin-1-yl)-4-methyl-N-(1-(2-methyl-3-(trifluoromethyl)phenyl)ethyl)phthalazin-1-amine formate salt] had an IC50 of 157 nM. In experiment [2], the Ki came out at 1.13 nM.

With `COc1c(C#N)cccc1[C@@H](C)Nc1nnc(C)c2ccc(N3CC(C)(O)C3)cc12` [Example 17-4, (R)-3-(1-((7-(3-hydroxy-3-methlazetidin-1-yl)-4-methylpyridazin-1-yl)amino)ethyl)-2-methoxybenzonitrile], the IC50 in the experiment on pERK in MKN1 cells (setting [3]) is 116 nM. Further, the inhibition constant Ki in experiment [2] (setting [4]) amounted to 14.4 nM. For `Cc1c(C#N)cccc1[C@@H](C)Nc1nnc(C)c2cnc(N3CCC(N4CCC4)CC3)cc12` [Example 12-29], in that order: 16 nM and 1.67 nM.

Turning to `Cc1c([C@@H](C)Nc2nnc(C)c3ccc(N4CCC5(CCNC5=O)CC4)cc23)cccc1C(F)(F)F` [Example 10-38, (R)-8-(1-methyl-4-((1-(2-methyl-3-(trifluoromethyl)phenyl)ethyl)amino)phthalazin-6-yl)-2,8-diazaspiro[4.5]decan-1-one], the IC50 in the experiment on pERK in MKN1 cells (setting [3]) was 29 nM. In addition, the Ki in experiment [2] (setting [4]) turned out to be 0.71 nM.

With `Cc1c([C@@H](C)Nc2nnc(C)c3cnc(N4CCNCC4)cc23)cccc1C(F)(F)F` [Example 6-9, (R)-4-methyl-N-(1-(2-methyl-3-(trifluoromethyl)phenyl)ethyl)-7-(piperazin-1-yl)pyrido[3,4-d]pyridazin-1-amine], the 50% inhibitory concentration (IC50) in experiment [1] was found to be 52 nM. On to `Cc1nc2n(c1C)CCN(c1ccc3cnnc(N[C@H](C)c4cccc(C(F)(F)F)c4C)c3c1)C2` [Example 1-28, (R)-7-(2,3-dimethyl-5,6-dihydroimidazo[1,2-a]pyrazin-7(8H)-yl)-N-(1-(2-methyl-3-(trifluoromethyl)phenyl)ethyl)phthalazin-1-amine], for which the IC50 in the experiment on pERK in MKN1 cells (setting [3]) was determined as 61 nM. For the same molecule, the Ki in experiment [2] (setting [4]) stood at 0.17 nM. For `Cc1c(C#N)cccc1[C@@H](C)Nc1nnc(C)c2c(F)cc(N3CCN4COCC[C@@H]4C3)cc12` [Example 21-9, 3-((R)-1-((5-fluoro-7-((R)-hexahydro-2H,6H-pyrazino[1,2-c][1,3]oxazin-2-yl)-4-methylphthalazin-1-yl)amino)ethyl)-2-methylbenzonitrile], in that order: 54 nM and 2.1 nM. For `Cc1nnc(N[C@H](C)c2cccc(C(F)(F)F)c2F)c2cc(N3CC(N(C)C)C3)ncc12` [Example 12-66], in that order: 77 nM and 2.1 nM. For `Cc1c(C#N)cccc1[C@@H](C)Nc1nnc(C)c2cc(C(F)(F)F)c(N3CC(C)(N(C)C)C3)cc12` [Example 19-1, (R)-3-(1-((7-(3-(dimethylamino)-3-methylazetidin-1-yl)-4-methyl-6-(trifluoromethyl)phthalazin-1-yl)amino)ethyl)-2-methylbenzonitrile], in that order: 156 nM and 6.16 nM.

Regarding `Cc1c([C@@H](C)Nc2nnc(C)c3ccc(N4CC(O)C4)cc23)cccc1C(F)(F)F` [Example 10-48, (R)-1-(1-methyl-4-((1-(2-methyl-3-(trifluoromethyl)phenyl)ethyl)amino)phthalazin-6-yl)azetidin-3-ol], the IC50 in the experiment on pERK in MKN1 cells (setting [3]) came out at 75 nM. In addition, the Ki in experiment [2] (setting [4]) is 1.35 nM. For `Cc1c([C@@H](C)Nc2nnc(C)c3ccc(N4CC[C@H](N(C)C)C(F)(F)C4)cc23)cccc1C(F)(F)F` [Example 21-6, 7-((S)-4-(dimethylamino)-3,3-difluoropiperidin-1-yl)-4-methyl-N—((R)-1-(2-methyl-3-(trifluoromethyl)phenyl)ethyl)phthalazin-1-amine], in that order: 176 nM and 0.93 nM. For `Cc1c(C#N)cccc1[C@@H](C)Nc1nnc(C)c2cnc(N3CC(C)(N(C)C)C3)cc12` [Example 12-43], in that order: 44 nM and 3.38 nM. On to `Cc1c([C@@H](C)Nc2nnc(C)c3cnc(N4CC(C)(O)C4)cc23)cccc1C(F)(F)F` [Example 12-21], for which the IC50 in the experiment with pERK in MKN1 cells (setting [3]) was 57 nM. The Ki in experiment [2] (setting [4]) is 1.32 nM. As for `Cc1c(C(F)F)cccc1[C@@H](C)Nc1nnc(C)c2cnc(N3CCN4CCOC[C@@H]4C3)cc12` [Example 12-42], the IC50 in the experiment on pERK in MKN1 cells (setting [3]) stood at 27 nM. The Ki in experiment [2] (setting [4]) was 0.79 nM. Molecule `Cc1cc(C#N)cc([C@@H](C)Nc2nnc(C)c3cnc(N4CCOCC4)cc23)c1` [Example 21-3, (R)-3-methyl-5-(1-((4-methyl-7-morpholinopyrido[3,4-d]pyridazin-1-yl)amino)ethyl)benzonitrile] displayed an IC50 in the experiment with pERK in MKN1 cells (MKN-1, pERK inhibition, In-Cell Western, MKN1 or H358 cells (Table 24 does not say which), 0.5-1 hour incubation) of 221 nM. Further, the Ki in experiment [2] worked out at 14.4 nM. For `Cc1c(C#N)cccc1[C@@H](C)Nc1nnc(C)c2cnc(N3CC4(CCN(CC(F)(F)F)C4)C3)cc12` [Example 12-78], the 50% inhibitory concentration (IC50) with pERK in MKN1 cells (setting [3]) was determined as 94 nM. The Ki in experiment [2] (setting [4]) was found to be 2.66 nM. For `Cc1c(C#N)cccc1[C@@H](C)Nc1nnc(C)c2cnc(N3CCN(c4cnn(C)c4)CC3)cc12` [Example 12-36], in that order: 12 nM and 0.99 nM. For `Cc1cc(F)ccc1[C@@H](C)Nc1nnc(C)c2cnc(N3CCN4CCOC[C@@H]4C3)cc12` [Example 12-79], in that order: 173 nM and 36.3 nM.

Take `Cc1c([C@@H](C)Nc2nnc(C)c3cnc(N4CC5CC(C4)O5)cc23)cccc1C(F)(F)F` [Example 12-2, 7-(6-oxa-3-azabicyclo[3.1.1]heptan-3-yl)-4-methyl-N—((R)-1-(2-methyl-3-(trifluoromethyl)phenyl)ethyl)pyrido[3,4-d]pyridazin-1-amine]: the 50% inhibitory concentration (IC50) in the experiment with pERK in MKN1 cells (setting [3]) worked out at 9 nM. Besides, the Ki in experiment [2] (setting [4]) is 0.6 nM. For `Cc1c([C@@H](C)Nc2nnc(C)c3cnc(N4CCC(C)(O)CC4)cc23)cccc1C(F)(F)F` [Example 12-7], in that order: 66 nM and 0.4 nM. For `Cc1nnc(N[C@H](C)c2cccc(C#N)c2)c2cc(N3CCOCC3)ccc12` [Example 6-15, (R)-3-(1-((4-methyl-7-morpholinophthalazin-1-yl)amino)ethyl)benzonitrile], in that order: 172 nM and 12.6 nM. For `Cc1c([C@@H](C)Nc2nnc(C)c3cnc(OC4CN(C)C4)cc23)cccc1C(F)(F)F` [Example 12-12], in that order: 249 nM and 21.6 nM.

With `Cc1c([C@@H](C)Nc2nncc3ccc(OC4CCN5CCCC5C4)cc23)cccc1C(F)(F)F` (stereo partly drawn) [Example 2-12, N-((R)-1-(2-methyl-3-(trifluoromethyl)phenyl)ethyl)-7-((octahydroindolizin-7-yl)oxy)phthalazin-1-amine], the IC50 in the experiment with pERK in MKN1 cells (setting [3]) is 304 nM. The Ki in experiment [2] (setting [4]) was 5.75 nM. For `Cc1c(C#N)cccc1[C@@H](C)Nc1nnc(C)c2cnc(N3CCN(C(=O)C4CC4)CC3)cc12` [Example 11-6, (R)-3-(1-((7-(4-(cyclopropanecarbonyl)piperazin-1-yl)-4-methylpyrido[3,4-d]pyridazin-1-yl)amino)ethyl)-2-methylbenzonitrile], in that order: 55 nM and 0.42 nM. For `COc1c(C#N)cccc1[C@@H](C)Nc1nnc(C)c2cnc(N3CC(C)(O)C3)cc12` [Example 17-3, (R)-3-(1-((7-(3-hydroxy-3-methylazetidin-1-yl)-4-methylpyrido[3,4-d]pyridazin-1-yl)amino)ethyl)-2-methoxybenzonitrile], in that order: 188 nM and 12.8 nM. For `Cc1c(C#N)cccc1[C@@H](C)Nc1nnc(C)c2cnc(N(C)C)cc12` [Example 12-45], the IC50 with pERK in MKN1 cells (setting [3]) was 250 nM. For the same molecule, in experiment [2] (setting [4]), the inhibition constant Ki stood at 3.78 nM.

As to `Cc1c([C@@H](C)Nc2nnc(C)c3ccc(N4CC5CCC(C4)N5C)cc23)cccc1C(F)(F)F` [Example 10-29, 4-methyl-N-((R)-1-(2-methyl-3-(trifluoromethyl)phenyl)ethyl)-7-(8-methyl-3,8-diazabicyclo[3.2.1]octan-3-yl)phthalazin-1-amine hydrochloride salt], in the experiment with pERK in MKN1 cells (MKN-1), 70 nM corresponded to half-maximal inhibition (IC50). In addition, the Ki in experiment [2] came to 0.39 nM. Turning to `COC1(C)CN(c2cc3c(N[C@H](C)c4cccc(C#N)c4C)nnc(C)c3cn2)C1` [Example 12-55], the IC50 in the experiment on pERK in MKN1 cells (setting [3]) was found to be 59 nM. Further, the Ki in experiment [2] (setting [4]) worked out at 3.1 nM.
